The source of these data is patent US10617662B2, “Autophagy activation-induced compound for improving skin inflammation for aging” (INCOSPHARM CORPORATION, priority 2017, dated 2020).

The structures appear in SMILES notation.

For assay [1], the system named is psoriasis animal model induced by imiquimod 5% cream. Description: Psoriasis animal model, H&E staining of back tissue. Type of assay: in vivo, BALB/c mice. The conditions noted are these: FIG. 15. As to the method: (§1) In order to confirm the psoriasis treatment effect by Compound 8 of the present invention, dorsal hair of 8-week-old BALB/c mice (female) was removed using hair removal cream (Veet®, Oxy Reckitt Benckiser, Cedex, France), and subsequently imiquimod 5% cream (Aldara®; 3M Pharmaceuticals, UK; 62.5 mg) was applied on the back and both ears of the mice twice in the morning and in the afternoon (Sensitization; Day 0). Then, after a barrier recovery period of 2 days, imiquimod 5% cream (62.5 mg/day) was applied repeatedly for 7 days (Induction stage; Day 2 -Day 8), thereby inducing the psoriasis animal model.
(§2) After inducing the psoriasis animal model, Compound 8 of the present invention dissolved in ethanol (0.5%) and cream containing Compound 8 of the present invention (The same composition as that of the cosmetic composition of Example 14 except that it contained 0.5% by weight of Compound 8) were applied on the back once in the morning for 5 days (Treatment Stage; Day 8-Day 12). An untreated control group and a disease control group (vehicle) were treated with cream not containing Compound 8 of the present invention (cosmetic composition of Comparative Example 2) and ethanol, and during the treatment period, imiquimod 5% cream was applied thereon every other day, thereby maintaining psoriasis. […]

Assay [2] has as its system ULK-1 (Serine/threonine-protein kinase-1). Description: Western blot for ULK-1 protein. It counts as cell-based, human. Particulars: HaCaT cells; 20 uM dilution, 1 ml added to 1 ml medium; FIG. 1. The procedure:
In order to analyze which gene expression is related to increased autophagy activation by Compound 8 of the present invention, a western blot analysis for Beclin-1 and ULK-1 (Serine/threonine-protein kinase-1) proteins which are closely related to autophagy activation was performed.
As a specific experimental method, HaCaT cells, human-derived keratinocytes were seeded on a 60Ø dish at a density of 3×10^5 cells, and cultured in DMEM (Dulbecco's Modified Eagle Media, Gibco BRL) in an incubator under 37° C. and 5% CO2 for 24 hours. Compound 8 of the present invention was dissolved in DMSO at a concentration of 10 mM each to be a concentrate, and diluted with a medium to be at a concentration of 20 uM. Then in a state where 1 ml of medium was first in each well, 1 ml of each diluted solution was added thereto for treatment, and cultured for a certain period, and after completing the culturing, the medium was removed, and then cells were disrupted with a SDS sample buffer, and each protein was separated by SDS-PAGE gel electrophoresis, and transferred to a PVDF membrane. […]
In general terms: In western blotting, separated proteins are transferred to a membrane and probed.

Assay [3] has as its system KLK7 (Kallikrein-related peptidase 7). Kind of assay: RT-PCR of psoriasis-related gene KLK7. Type of assay: cell-based, human. The conditions noted are these: HEKa cells, 20 uM, FIGS. 2 and 3. As to the method:
(§3) A psoriasis-related genes were selected from the cDNA array result in which Compound 8 of the present invention was treated in HaCaT cells. In order to analyze whether Compound 8 has an effect on psoriasis alleviation, RT-PCR analysis for IL-36′ (interleukin 36 gamma), KLK7 (Kallikrein-related peptidase 7), OASL (2′-5′-Oligoadenylate Synthetase Like) and ALOX12B (Arachidonate 12-lipoxygenase, 12R type) which are very closely related to psoriasis was carried out. Further, KRT16 (Keratin 16), KRT6 (Keratin 6) and KRT1 (Keratin 1), known as psoriasis-related proliferation, differentiation markers were confirmed by a western blot analysis. As the specific experimental method, HEKa cells (Human Epidermal keratinocytes, adult), human-derived epidermal keratinocytes were seeded on a 24 well plate at a density of 1×10^5 cells, and cultured in an EpiLife medium (1× Human keratinocyte Growth supplement, 1× antibiotics) in an incubator under 37° C. and 5% CO2 for 24 hours. […]

The test system of assay [4] is CCL20 (Chemokine (C-C motif) ligand 20). Description: Cytokine gene expression, CCL20, IL-17A/TNF-α condition. Type of assay: cell-based, human. Particulars: FIG. 9.
The subject of assay [5] is IL-36G (interleukin 36, gamma). Description: RT-PCR of psoriasis-related gene IL-36G. Type of assay: cell-based, human. The conditions noted are these: HEKa cells, 20 uM, FIGS. 2 and 3. The procedure:
as §3

In assay [6] the test system is STAT3 (Signal transducer and activator of transcription 3). Description: Expression of psoriasis-related transcription factor STAT3 in induced inflammatory condition. It counts as cell-based, human. The conditions noted are these: IL-17A/TNFα- or IL-17A/IFNγ-induced inflammatory condition.
In assay [7] the test system is psoriasis animal model induced by imiquimod 5% cream. Kind of assay: Psoriasis animal model, transepidermal water loss (TEWL). Type of assay: in vivo, BALB/c mice. The conditions noted are these: increased by 5% imiquimod; applied for 5 days, 0.5% in ethanol or 0.5% cream; FIG. 17. The procedure:
as §1, §2

With `CCCCCCCCCCCCCCCC(=O)NCCCC[C@H](NC(=O)[C@H](CCCCN(CC(=O)O)CC(=O)O)N(CC(=O)O)CC(=O)O)C(=O)O` [Compound 8], in assay [1], the “thickness of stratum corneum” value is on record as “significantly reduced”. In addition, in assay [2], the “expression of ULK-1 protein” value was “significantly increased”. The “expression level of KLK7 gene” value in assay [3] is recorded as “significantly decreased”. In addition, the “expression level of CCL20” value in assay [4] is listed as “reduced”. Besides, the “expression level of IL-36G gene” value in assay [5] is given as “significantly decreased”. Also, in assay [6], the “expression level of STAT3” value is listed as “reduced”. For the same compound, the TEWL value result in assay [7] is listed as “remarkably reduced”.
